According to patent publication US20220144902A1, “METHOD FOR INDUCING MUSCULAR CELLS USING CELLS IN SPOT URINE” (NATIONAL CENTER OF NEUROLOGY AND PSYCHIATRY, priority 2018, published 2022):

What follows are compounds tested on MYOD1-positive urine-derived cells (assay: Promotion of myotube induction by low molecular compounds, myosin heavy chain immunocytochemistry). Settings: compound added to differentiation medium with doxycycline; FIG. 3A 1 μM, FIG. 3B 10 μM.
Assay type: cell-based, human
Method: (§1) The MYOD1-positive urine-derived cells were plated onto a collagen-coated culture dish or plate and cultured in a differentiation medium supplemented with doxycycline (e.g., 1 μg/ml) (the medium containing high-glucose-containing DMEM with GlutaMAX-I (Thermo Fisher Scientific; 10569-010), 5% horse serum, ITS Liquid Media Supplement (Sigma; 13146), and 1 μg/ml doxycycline) to induce the myotubes. Whether or not muscular differentiation could be promoted with the addition of a low molecular compound in a compound library (Sigma; S990043-EPI1) to the differentiation medium was examined. The low molecular compound was added at a final concentration of 0.1, 1, or 10 μM. Myotube induction was evaluated by immunocytochemistry and Western blotting.
For immunocytochemistry, cultured cells were washed in PBS, fixed in 4% paraformaldehyde, and then incubated with the addition of 0.1% Triton-X at room temperature for 10 minutes. The anti-myosin heavy chain antibody (1:50, R&D, Minneapolis, U.S.A.; MAB4470) and the anti-dystrophin antibody (1:30, Novocastra, Newcastle, UK; NCL-DYS1) were used as primary antibodies, and Alexa Fluor 546 goat anti-mouse IgG (H+L) (1:300, Invitrogen; A11003) was used as a secondary antibody. Nuclear staining was performed with the use of Hoechst 33342. An image was obtained using a fluorescence microscope (BZ-9000 or BZ-X800, KEYENCE, Osaka, Japan) and analyzed using the BZ-X Analyzer (KEYENCE).
As a result, it was founded that a degree of muscular differentiation evaluated in terms of the myosin heavy chain protein expression level by immunocytochemistry was enhanced to a significant extent with the addition of the epigenetic regulatory compound(s) to the differentiation medium (FIGS. 3 and 4). […] Also, effects of histone methyltransferase inhibitors (GSK343, SGC707, furamidine dihydrochloride, UNC2327, E7438, and MI-2 (menin-MLL inhibitor)), histone demethylase inhibitors (IOX 1 and GSK-J1), histone deacetylase (HDAC) inhibitors (VORINOSTAT, LMK-235, CAY10603, and BRD73954), SIRT2 inhibitor (SirReal 2), and PARP inhibitor (EB47) were observed. In FIG. 3, a horizontal axis represents a type of a compound added, and a vertical axis represents an area of a myosin heavy chain-positive region determined by immunocytochemistry. […] Statistical analysis was performed by a Kruskal-Wallis test at a significance level of p<0.05. “*,” “**,” and “***” indicate p<0.05, p<0.01, and p<0.001, respectively.

Compound | degree of muscular differentiation evaluated in terms of the myosin heavy chain protein expression level by immunocytochemistry
O=C(CCCCCCC(=O)Nc1ccccc1)NO [VORINOSTAT] | observed
UNC2327 | observed
Cl.Cl.Nc1ncnc2c1ncn2[C@@H]1O[C@H](C(=O)N2CCN(CC(=O)Nc3cccc4c3CNC4=O)CC2)[C@@H](O)[C@H]1O [EB47] | observed
CC(C)(C)OC(=O)Nc1ccc(-c2cc(C(=O)NCCCCCCC(=O)NO)no2)cc1 [CAY10603] | observed
O=C(O)CCNc1cc(N2CCc3ccccc3CC2)nc(-c2ccccn2)n1 [GSK-J1] | observed
O=C(O)c1ccc(O)c2ncccc12 [IOX 1] | observed
CCCc1cc2c(N3CCN(C4=NCC(C)(C)S4)CC3)ncnc2s1 [MI-2 (menin-MLL inhibitor)] | observed
CCCc1cc(C)[nH]c(=O)c1CNC(=O)c1cc(-c2ccnc(N3CCN(C)CC3)c2)cc2c1cnn2C(C)C [GSK343] | observed
O=C(NO)c1cccc(C(=O)NCCc2ccccc2)c1 [BRD73954] | observed
Cl.Nc1nccc2c1ncn2[C@@H]1C=C(CO)[C@@H](O)[C@H]1O [DZNep, 3-deazaneplanocin A hydrochloride] | high
Cc1cc(C)nc(SCC(=O)Nc2ncc(Cc3cccc4ccccc34)s2)n1 [SirReal 2] | observed
Cc1cc(C)cc(C(=O)NOCCCCCC(=O)NO)c1 [LMK-235] | observed
CCN(c1cc(-c2ccc(CN3CCOCC3)cc2)cc(C(=O)NCc2c(C)cc(C)[nH]c2=O)c1C)C1CCOCC1 [E7438] | observed
O=C(NCC(=O)N1CCCC1)Nc1ccc2cnccc2c1 [SGC707] | observed

The compounds below were run on myotubes induced from urine-derived cells obtained from 4 healthy subjects (assay: Promotion of myotube induction, Western blotting of myosin heavy chain and dystrophin). Settings: in the presence of DZNep; urine-derived cells from 4 healthy subjects.
Assay type: cell-based, human
Method: as §1
The effects of DZNep on promoting myotube induction were also examined by Western blotting. […] The total protein concentration was measured using the BCA protein assay kit (Thermo Fisher Scientific; 23227), denaturation was performed using NuPAGE® LDS Sample Buffer (Thermo Fisher Scientific; NP0007), SDS-PAGE was performed on 3% to 8% NuPAGE® Novex Tris-Acetate Gel (Invitrogen; EA03785BOX), and the resultant was transferred onto a PVDF membrane (Millipore, Billerica, Mass., U.S.A.; IPVH304F0). […] After the antibody reaction, a band of interest was detected using the ECL Prime Western Blotting Detection Reagent (GE Healthcare, UK; RPN2232). […]

Compound | dystrophin expression by Western blotting | myosin heavy chain expression by Western blotting
Cl.Nc1nccc2c1ncn2[C@@H]1C=C(CO)[C@@H](O)[C@H]1O [DZNep, 3-deazaneplanocin A hydrochloride] | expressed at high levels | expressed at high levels
